US6274588A, “4-phenyl-pyrimidine derivatives” (Hoffmann-La Roche Inc., priority 1999, dated 2001)

Target: T1, human NK1 receptors (Homo sapiens, UniProt P25103)
T1 construct: expressed in transfected cells; host or cells: CHO cells (Semliki virus expression system), membrane suspension
Experiment: NK1 receptor binding assay, displacement of [3H]substance P
Details: human NK1 receptors in CHO cells (Semliki virus expression system), [3H]substance P 0.6 nM, 60 min at room temperature; for Ki: read-out: affinity to the NK-1 receptor, given as pKi (converted)
Method: The affinity of test compounds for the NK1 receptor was evaluated at human NK1 receptors in CHO cells infected with the human NK1 receptor (using the Semliki virus expression system) and radiolabelled with [^3 H]substance P (final concentration 0.6 nM). Binding assays were performed in HEPES buffer (50 mM, pH 7.4) containing BSA (0.04 %) leupeptin (8 μg/ml), MnCl2 (3 mM) and phosphoramidon (2 μM). Binding assays consisted of 250 μl of membrane suspension (1.25×10^5 cells/assay tube), […] of buffer of displacing agent and 125 μl of [^3 H]substance P. Displacement curves were determined with at least seven concentrations of the compound. The assay tubes were incubated for 60 min at room temperature after which time the tube contents were rapidly filtered under vacuum through GF/C filters presoaked for 60 min with PEI (0.3%) with 2×2 ml washed of HEPES buffer (50 mM, pH 7.4). The radioactivity retained on the filters was measured by scintillation counting. All assays were performed in triplicate in at least 2 separate experiments.

T1 sequence (P25103 whole entry): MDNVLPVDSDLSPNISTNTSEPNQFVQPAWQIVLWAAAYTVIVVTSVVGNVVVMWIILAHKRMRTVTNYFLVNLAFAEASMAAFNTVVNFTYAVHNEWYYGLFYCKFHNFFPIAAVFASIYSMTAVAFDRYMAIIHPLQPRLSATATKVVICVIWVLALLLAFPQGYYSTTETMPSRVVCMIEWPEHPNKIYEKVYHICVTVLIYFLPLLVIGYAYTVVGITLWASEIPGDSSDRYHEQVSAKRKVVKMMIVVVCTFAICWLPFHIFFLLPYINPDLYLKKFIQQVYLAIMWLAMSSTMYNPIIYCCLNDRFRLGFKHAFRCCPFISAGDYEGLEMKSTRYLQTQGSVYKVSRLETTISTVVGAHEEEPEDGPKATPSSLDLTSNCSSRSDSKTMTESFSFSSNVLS

affinity to the NK-1 receptor, given as pKi | Ki [nM] | Compound
8.11 | – | 4-(2-Chloro-phenyl)-2-(3-dimethylamino-ethoxy)-pyrimidine-5-carboxylic acid(3,5-bis-trifluoromethyl-benzyl)-methyl-amide
– | 3.55 | CN(C)CCOc1ncc(C(=O)N(C)Cc2cc(C(F)(F)F)cc(C(F)(F)F)c2)c(-c2ccccc2Cl)n1 [Example 52, 4-(2-Chloro-phenyl)-2-(2-dimethylamino-ethoxy)-pyrimidine-5-carboxylic Acid (3,5-bis-trifluoromethyl-benzyl)-methyl-amide]
– | 1.74 | CN(C)CCCOc1ncc(C(=O)N(C)Cc2cc(C(F)(F)F)cc(C(F)(F)F)c2)c(-c2ccccc2Cl)n1 [Example 53, 4-(2-Chloro-phenyl)-2-(3-dimethylamino-propoxy)-pyrimidine-5-carboxylic Acid (3,5-bis-trifluoromethyl-benzyl)-methyl-amide]
– | 0.724 | Cc1cc(F)ccc1-c1nc(N2CCNCC2)ncc1C(=O)N(C)Cc1cc(C(F)(F)F)cc(C(F)(F)F)c1 [Example 84, 4-(4-Fluor-2-methyl-phenyl)-2-piperazin-1-yl-pyrimidine-5-carboxylic Acid (3,5-bis-trifluoromethyl-benzyl)-methyl-amide]
– | 2.88 | CN1CCN(c2ncc(C(=O)N(C)Cc3cc(C(F)(F)F)cc(C(F)(F)F)c3)c(-c3cccc4ccccc34)n2)CC1 [Example 88, 2-(4-Methyl-piperazin-1-yl)-4-naphthalen-1-yl-pyrimidine-5-carboxylic Acid (3,5-bis-trifluoromethyl-benzyl)-methyl-amide]
